Test results from ChEMBL document CHEMBL1140726, “Discovery and biological evaluation of 5-aryl-2-furfuramides, potent and selective blockers of the Nav1.8 sodium channel with efficacy in models of neuropathic and inflammatory pain” (J Med Chem, 2008).
One block for each compound: values may come before it.

Columns and labels:
[1] = target: Sodium channel protein type 10 subunit alpha (Mus musculus, UniProt Q6QIY3); assay: Inhibition of mouse recombinant Nav 1.8 channel expressed in HEK293 cells by isotopic efflux assay; assay type: cell-based
Sequence of Sodium channel protein type 10 subunit alpha (Mus musculus, UniProt Q6QIY3) (Q6QIY3 whole entry): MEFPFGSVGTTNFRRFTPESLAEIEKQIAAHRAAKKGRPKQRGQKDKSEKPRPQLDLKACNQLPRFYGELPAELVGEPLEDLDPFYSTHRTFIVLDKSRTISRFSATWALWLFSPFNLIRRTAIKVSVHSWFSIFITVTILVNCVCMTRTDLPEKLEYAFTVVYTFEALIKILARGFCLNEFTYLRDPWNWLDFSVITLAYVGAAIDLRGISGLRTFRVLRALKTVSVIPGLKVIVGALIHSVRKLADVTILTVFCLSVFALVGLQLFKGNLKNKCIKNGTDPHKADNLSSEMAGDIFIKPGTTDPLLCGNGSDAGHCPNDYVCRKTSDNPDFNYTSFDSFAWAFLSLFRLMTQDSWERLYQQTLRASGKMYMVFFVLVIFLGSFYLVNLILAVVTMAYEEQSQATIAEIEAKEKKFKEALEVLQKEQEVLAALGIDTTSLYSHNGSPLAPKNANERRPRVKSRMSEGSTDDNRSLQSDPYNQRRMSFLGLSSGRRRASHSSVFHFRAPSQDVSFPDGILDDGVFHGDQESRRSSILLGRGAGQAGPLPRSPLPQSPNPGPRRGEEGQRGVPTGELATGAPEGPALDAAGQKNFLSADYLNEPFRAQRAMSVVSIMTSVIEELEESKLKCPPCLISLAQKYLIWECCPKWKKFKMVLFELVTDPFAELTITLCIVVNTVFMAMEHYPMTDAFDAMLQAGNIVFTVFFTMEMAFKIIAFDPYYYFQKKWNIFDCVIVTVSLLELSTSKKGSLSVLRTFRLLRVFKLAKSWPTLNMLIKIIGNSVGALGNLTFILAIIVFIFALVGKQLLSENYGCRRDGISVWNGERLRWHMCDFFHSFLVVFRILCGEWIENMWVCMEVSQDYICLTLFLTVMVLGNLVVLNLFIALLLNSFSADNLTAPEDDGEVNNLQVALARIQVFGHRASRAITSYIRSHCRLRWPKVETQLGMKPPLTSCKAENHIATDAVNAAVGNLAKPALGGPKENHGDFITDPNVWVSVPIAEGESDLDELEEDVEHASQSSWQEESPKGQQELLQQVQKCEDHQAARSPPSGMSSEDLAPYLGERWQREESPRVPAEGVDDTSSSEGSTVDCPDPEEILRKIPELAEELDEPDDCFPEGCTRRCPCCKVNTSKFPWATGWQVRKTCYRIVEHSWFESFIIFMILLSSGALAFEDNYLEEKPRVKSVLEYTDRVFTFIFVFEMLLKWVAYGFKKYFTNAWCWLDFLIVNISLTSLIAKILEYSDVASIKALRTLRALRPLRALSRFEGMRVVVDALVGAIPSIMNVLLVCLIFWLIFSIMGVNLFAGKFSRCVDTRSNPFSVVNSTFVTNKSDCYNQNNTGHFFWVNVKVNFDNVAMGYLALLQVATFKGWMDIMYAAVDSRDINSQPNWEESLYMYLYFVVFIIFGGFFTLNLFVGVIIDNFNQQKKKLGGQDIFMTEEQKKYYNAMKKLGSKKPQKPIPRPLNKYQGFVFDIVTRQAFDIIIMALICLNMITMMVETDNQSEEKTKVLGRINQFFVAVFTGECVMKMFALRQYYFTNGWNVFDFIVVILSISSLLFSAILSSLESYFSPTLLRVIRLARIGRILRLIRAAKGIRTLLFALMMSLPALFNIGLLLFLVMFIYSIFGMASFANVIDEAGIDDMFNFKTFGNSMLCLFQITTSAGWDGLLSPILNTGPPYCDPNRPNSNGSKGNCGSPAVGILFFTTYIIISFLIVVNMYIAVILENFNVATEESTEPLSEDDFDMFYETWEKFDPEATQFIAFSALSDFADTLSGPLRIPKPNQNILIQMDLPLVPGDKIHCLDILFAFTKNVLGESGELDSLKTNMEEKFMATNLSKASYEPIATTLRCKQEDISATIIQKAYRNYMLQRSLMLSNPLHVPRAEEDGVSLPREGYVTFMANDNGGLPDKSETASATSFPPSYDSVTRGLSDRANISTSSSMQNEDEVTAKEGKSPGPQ

[2] = Activity at rat dorsal root ganglion in inactivated state with prepulse voltage of -40 mV assessed as blockade of TTx-resistant sodium current at 1 uM by whole-cell patch clamp technique; assay type: functional
[3] = Activity at rat dorsal root ganglion in inactivated state with prepulse voltage of -40 mV assessed as blockade of TTx-resistant sodium current at 10 uM by whole-cell patch clamp technique; assay type: functional
[4] = Activity at rat dorsal root ganglion in resting state with prepulse voltage of -100 mV assessed as blockade of TTx-resistant sodium current at 1 uM by whole-cell patch clamp technique; assay type: functional
[5] = Activity at rat dorsal root ganglion in resting state with prepulse voltage of -100 mV assessed as blockade of TTx-resistant sodium current at 10 uM by whole-cell patch clamp technique; assay type: functional
[6] = target: T1, Sodium channel protein type 10 subunit alpha (Homo sapiens, UniProt Q9Y5Y9); assay: Activity at human recombinant Nav 1.8 channel expressed in HEK293 cells in inactivated state with prepulse voltage of -40 mV assessed as blockade of TTx-resistant sodium current at 1 uM; assay type: cell-based
T1 sequence (Q9Y5Y9 whole entry, looked up): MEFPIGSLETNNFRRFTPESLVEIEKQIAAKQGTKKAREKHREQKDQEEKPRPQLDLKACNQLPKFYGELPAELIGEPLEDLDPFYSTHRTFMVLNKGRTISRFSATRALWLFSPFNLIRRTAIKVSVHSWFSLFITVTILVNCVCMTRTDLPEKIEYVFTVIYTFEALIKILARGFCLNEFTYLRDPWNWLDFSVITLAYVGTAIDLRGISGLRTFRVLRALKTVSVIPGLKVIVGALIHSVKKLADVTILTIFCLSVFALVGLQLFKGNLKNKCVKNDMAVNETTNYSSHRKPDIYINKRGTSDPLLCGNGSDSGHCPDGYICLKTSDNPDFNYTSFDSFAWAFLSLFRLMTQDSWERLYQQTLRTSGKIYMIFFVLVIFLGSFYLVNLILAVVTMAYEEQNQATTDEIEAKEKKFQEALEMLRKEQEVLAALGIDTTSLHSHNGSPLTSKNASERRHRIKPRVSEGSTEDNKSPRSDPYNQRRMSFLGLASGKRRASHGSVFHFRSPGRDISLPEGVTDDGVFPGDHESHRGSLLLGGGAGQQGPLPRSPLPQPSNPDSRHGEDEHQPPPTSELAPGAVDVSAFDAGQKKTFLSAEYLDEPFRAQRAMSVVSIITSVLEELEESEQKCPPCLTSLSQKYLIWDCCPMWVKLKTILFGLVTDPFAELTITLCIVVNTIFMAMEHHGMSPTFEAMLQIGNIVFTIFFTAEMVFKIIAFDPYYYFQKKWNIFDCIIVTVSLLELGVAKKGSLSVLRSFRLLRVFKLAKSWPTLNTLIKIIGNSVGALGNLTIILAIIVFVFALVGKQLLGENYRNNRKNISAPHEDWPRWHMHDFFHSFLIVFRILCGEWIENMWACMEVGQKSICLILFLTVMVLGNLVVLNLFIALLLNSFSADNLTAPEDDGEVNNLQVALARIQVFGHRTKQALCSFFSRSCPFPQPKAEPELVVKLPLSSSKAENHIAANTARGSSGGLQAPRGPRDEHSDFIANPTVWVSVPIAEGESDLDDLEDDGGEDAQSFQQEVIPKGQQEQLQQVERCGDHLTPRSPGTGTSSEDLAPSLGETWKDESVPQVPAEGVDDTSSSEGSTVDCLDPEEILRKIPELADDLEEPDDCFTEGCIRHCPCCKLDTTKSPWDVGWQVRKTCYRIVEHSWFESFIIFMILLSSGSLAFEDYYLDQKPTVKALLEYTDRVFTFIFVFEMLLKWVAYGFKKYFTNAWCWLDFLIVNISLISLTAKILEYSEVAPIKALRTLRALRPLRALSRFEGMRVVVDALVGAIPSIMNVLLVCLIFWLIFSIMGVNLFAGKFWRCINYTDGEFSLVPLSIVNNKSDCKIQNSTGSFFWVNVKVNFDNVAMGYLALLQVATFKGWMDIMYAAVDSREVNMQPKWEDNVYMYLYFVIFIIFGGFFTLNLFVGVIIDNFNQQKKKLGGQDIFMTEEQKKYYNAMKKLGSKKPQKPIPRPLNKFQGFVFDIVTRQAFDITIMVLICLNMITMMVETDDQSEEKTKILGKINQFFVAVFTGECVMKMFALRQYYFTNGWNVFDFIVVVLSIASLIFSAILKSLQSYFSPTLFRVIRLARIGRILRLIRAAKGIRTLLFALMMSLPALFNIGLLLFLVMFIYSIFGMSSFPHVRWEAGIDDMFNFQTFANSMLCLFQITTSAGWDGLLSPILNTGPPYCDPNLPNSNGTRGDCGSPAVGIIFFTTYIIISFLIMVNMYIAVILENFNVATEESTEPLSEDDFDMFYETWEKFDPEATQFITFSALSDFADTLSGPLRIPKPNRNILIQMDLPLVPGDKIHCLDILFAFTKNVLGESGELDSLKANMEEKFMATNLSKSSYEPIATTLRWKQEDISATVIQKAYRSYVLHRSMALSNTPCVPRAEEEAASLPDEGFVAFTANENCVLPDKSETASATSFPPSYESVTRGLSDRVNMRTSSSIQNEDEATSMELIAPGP

[7] = target: T1, Sodium channel protein type 10 subunit alpha; assay: Activity at human recombinant Nav 1.8 channel expressed in HEK293 cells in inactivated state with prepulse voltage of -40 mV assessed as blockade of TTx-resistant sodium current at 3 uM; assay type: cell-based
[8] = target: T1, Sodium channel protein type 10 subunit alpha; assay: Activity at human recombinant Nav 1.8 channel expressed in HEK293 cells in resting state with prepulse voltage of -100 mV assessed as blockade of TTx-resistant sodium current at 1 uM; assay type: cell-based
[9] = target: T1, Sodium channel protein type 10 subunit alpha; assay: Activity at human recombinant Nav 1.8 channel expressed in HEK293 cells in resting state with prepulse voltage of -100 mV assessed as blockade of TTx-resistant sodium current at 3 uM; assay type: cell-based
[10] = target: T1, Sodium channel protein type 10 subunit alpha; assay: Inhibition of human recombinant Nav 1.8 channel expressed in HEK293 cells at 1 uM; assay type: cell-based
[11] = target: T1, Sodium channel protein type 10 subunit alpha; assay: Inhibition of human recombinant Nav 1.8 channel expressed in HEK293 cells at 3 uM; assay type: cell-based
[12] = target: Sodium channel protein type 2 subunit alpha (Homo sapiens) (UniProt Q99250); assay: Inhibition of human Nav1.2 channel at 1 uM
[13] = target: Sodium channel protein type 3 subunit alpha (Homo sapiens) (UniProt Q9NY46); assay: Inhibition of human Nav1.3 channel at 1 uM
[14] = target: Nav1.5 (sodium channel protein type 5 subunit alpha) (Homo sapiens, UniProt Q14524); assay: Inhibition of human Nav1.5 channel at 1 uM; details: human
[15] = target: Voltage-gated inwardly rectifying potassium channel KCNH2 (Homo sapiens, UniProt Q12809); assay: Inhibition of hERG potassium channel expressed in CHO cells by isotope efflux assay
Sequence of Voltage-gated inwardly rectifying potassium channel KCNH2 (Q12809 whole entry): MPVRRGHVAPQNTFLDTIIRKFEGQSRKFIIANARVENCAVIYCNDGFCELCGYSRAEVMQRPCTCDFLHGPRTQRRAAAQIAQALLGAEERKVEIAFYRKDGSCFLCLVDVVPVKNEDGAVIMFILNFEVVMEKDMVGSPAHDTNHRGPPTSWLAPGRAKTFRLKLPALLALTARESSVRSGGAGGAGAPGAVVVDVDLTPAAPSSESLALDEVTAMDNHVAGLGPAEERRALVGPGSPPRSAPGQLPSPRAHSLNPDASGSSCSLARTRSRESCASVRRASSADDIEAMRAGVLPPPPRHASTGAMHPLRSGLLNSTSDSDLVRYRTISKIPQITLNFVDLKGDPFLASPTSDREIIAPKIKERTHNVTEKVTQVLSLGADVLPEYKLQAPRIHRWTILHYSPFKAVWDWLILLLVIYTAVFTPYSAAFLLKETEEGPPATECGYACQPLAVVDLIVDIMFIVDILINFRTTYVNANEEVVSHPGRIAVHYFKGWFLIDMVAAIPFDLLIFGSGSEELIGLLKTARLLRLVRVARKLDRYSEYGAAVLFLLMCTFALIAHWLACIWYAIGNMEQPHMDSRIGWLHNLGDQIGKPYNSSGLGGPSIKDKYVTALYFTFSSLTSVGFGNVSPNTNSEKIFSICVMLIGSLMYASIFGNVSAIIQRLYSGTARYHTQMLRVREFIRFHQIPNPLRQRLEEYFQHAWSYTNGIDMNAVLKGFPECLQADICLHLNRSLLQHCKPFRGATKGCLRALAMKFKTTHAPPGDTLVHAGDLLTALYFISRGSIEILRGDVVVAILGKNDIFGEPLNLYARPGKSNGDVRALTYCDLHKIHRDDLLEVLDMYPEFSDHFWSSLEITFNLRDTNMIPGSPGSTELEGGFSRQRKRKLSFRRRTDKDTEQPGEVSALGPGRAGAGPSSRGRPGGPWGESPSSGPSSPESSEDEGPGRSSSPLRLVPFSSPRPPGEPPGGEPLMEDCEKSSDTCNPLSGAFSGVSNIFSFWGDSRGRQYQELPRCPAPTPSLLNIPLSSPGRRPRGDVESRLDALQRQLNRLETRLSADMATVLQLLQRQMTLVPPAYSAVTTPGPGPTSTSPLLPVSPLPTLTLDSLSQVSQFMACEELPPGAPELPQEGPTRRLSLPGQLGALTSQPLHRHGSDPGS

IC50 [1]: 2.5 µM
Compound: O=C(Nc1cccc(C2=NCCO2)c1)c1ccc(-c2ccc(Cl)cc2)o1

IC50 [1]: 10 µM
Compound: O=C(Nc1ccc2ncccc2c1)c1ccc(-c2ccc(Cl)cc2)o1

IC50 [1]: 0.96 µM | inhibition [6]: 42% | inhibition [7]: 81% | inhibition [8]: 58% | inhibition [9]: 83% | inhibition [10]: 42% | inhibition [11]: 81% | inhibition [12]: 12% | inhibition [13]: 5%
Compound: Cc1ccnc(NC(=O)c2ccc(-c3ccc(Cl)cc3)o2)c1
inhibition at 1 µM [2]: 36% | inhibition at 10 µM [3]: 88% | inhibition at 1 µM [4]: 9% | inhibition at 10 µM [5]: 88% | inhibition at 1 µM [14]: 24% | IC50 [15]: > 30 µM

IC50 [1]: 4.6 µM
Compound: CN1CCc2ccc(NC(=O)c3ccc(-c4ccc(Cl)cc4)o3)cc21

IC50 [1]: 1.9 µM
Compound: O=C(NCCc1ccccc1Cl)c1ccc(-c2ccc(Cl)cc2)o1

IC50 [1]: > 30 µM
Compound: O=C(c1ccc(-c2ccc(Cl)cc2)o1)N1CCOCC1

IC50 [1]: 2.5 µM
Compound: Cc1cc(NC(=O)c2ccc(-c3ccc(Cl)cc3)o2)ccn1

IC50 [1]: 1.1 µM
Compound: Cc1ccccc1CNC(=O)c1ccc(-c2ccc(Cl)cc2)o1

IC50 [1]: 0.43 µM
Compound: CCOc1ccc(-c2ccc(C(=O)Nc3cccc(C)c3)o2)cc1

IC50 [1]: 7.5 µM
Compound: Cc1cccc(NC(=O)c2ccc(-c3cccc(C(F)(F)F)c3)o2)c1

IC50 [1]: 20 µM
Compound: Cc1cccc(NC(=O)c2coc(-c3ccc(Cl)cc3)c2)c1

IC50 [1]: 5.3 µM
Compound: Cc1cccc(NC(=O)c2cc(-c3ccc(Cl)cc3)co2)c1
